Results: patent publication US8252807B2, “Methods of inhibiting the interaction between S100 and the receptor for advanced glycation end-products” (Board of Regents, The University of Texas System, priority 2007, dated 2012)

Columns and labels:
Panc-1 cells = assay: Panc-1 cell growth (MTS); format: cell-based
Method: Panc-1 pancreatic adenocarcinoma cells (1.0×10^3 cells/well) were cultured in the presence or absence of S100P (100 nM) and with or without cromolyn (100 μM), and cell proliferation was analyzed at 24, 48, and 72 hours. Means and 95% confidence intervals of three independent experiments performed in triplicate are shown. *, P=0.001, S100P alone versus S100P+cromolyn.
Panc-1 cells were plated at 1.0×10^3 cells/well and treated with platelet-derived growth factor (10 ng/mL) with or without cromolyn (100 μM), and cell proliferation was analyzed after 48 hours. Means and 95% confidence intervals of three independent experiments performed in triplicate are shown. *, P=0.004 PDGF and P=0.022 cromolyn+PDGF versus control.
Growth of Panc-1 and BxPC3 pancreatic adenocarcinoma cells was analyzed using MTS reagent (Promega, Madison, Wis.) according to the manufacturer's directions. Purified S100P (100 nM final concentration) with or without cromolyn (100 μM final concentration) was added to Panc-1 cells. Only cromolyn (0-100 μM) was added to BxPC-3 cells, which express endogenous S100P. For both cell models, 1.0×10^3 cells/well were plated in 96-well culture dishes. Cells were treated with S100P, PDGF, or cromolyn, or a combination, followed immediately by treatment with either S100P or PDGF. MTS (20 μL per well) was added to cells at various times, and the mixture was incubated for 1 hour at 37° C. Samples were then read at 490 nm (as O.D. units) on a uQuant-Microplate Spectrophotometer (Bio-Tek Services Inc., Richmond, Va.). The assay was performed three times in triplicate.

S100P binding with RAGE = biological target: T1, S100P binding with RAGE (Homo sapiens, UniProt P25815); assay: S100P binding with RAGE ELISA (sRAGE coated plate)
T1 construct: full-length human S100P cDNA (NM_005980) was cloned into the pTrcHis2 vector; His tag
T1 sequence (P25815 1-95): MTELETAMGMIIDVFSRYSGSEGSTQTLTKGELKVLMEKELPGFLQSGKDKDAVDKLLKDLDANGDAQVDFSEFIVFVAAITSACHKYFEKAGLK
Method: After removing un-bound S100P by washing with detergent, the bound S100P and RAGE complex was quantified by adding HRP labeled antibody against S100P. *, P=0.04 C5 μM versus cromolyn 5 μM. Two-tailed two-sample (unpaired) Student's t-tests were used to determine P values.

S100P = biological target: T2, S100P (Homo sapiens, UniProt P25815); assay: S100P binding to cromolyn using affinity chromatography; details: cromolyn coupled to AF-TOYOPEARL; EGTA elution; control column did not retain
T2 construct: full-length human S100P cDNA (NM_005980) was cloned into the pTrcHis2 vector; His tag; made in house
Method: Cromolyn was coupled with the amino group of AF-amino TOYOPEARL to generate a cromolyn affinity column. A negative control column was prepared by blocking the amino group. Purified S100P was added to both columns, which were then washed extensively. Protein was eluted from the columns using EGTA and subjected to sodium dodecylsulfate polyacrylamide gel electrophoresis and staining with Commassie blue. Lane 1 of the gel is the molecular weight marker; lane 2 is the eluate from the control column; and lane 3 is the eluate from the cromolyn column (arrow, S100P). The gel shown is one of three independent experiments.
Cromolyn was coupled to AF-TOYOPEARL resin as described in Shishibori, et al., Three distinct anti-allergic drugs, amlexanox, cromolyn and tranilast, bind to S100A 12 and S100A13 of the S100 protein family; Biochem. J. 1999 Mar. 15; 338 (Pt 3):583-9. Briefly, 0.1 grams of cromolyn was dissolved in 1 mL of N,N-dimethylformamide and added to 7 mL (5 grams wet mass) AF-TOYOPEARL. Next, 0.5 grams of N-ethyl-N-(3-dimethylaminopropyl) carbodiimide hydrochloride, suspended in 10 mL of N,N-dimethylformamide, was added to the cromolyn+AF-TOYOPEARL slurry. The pH was adjusted to 5.0, and the slurry was incubated with gentle shaking for 48 hours at 25° C. As a negative control, a column was prepared by blocking the amino group of AF-TOYOPEARL with sodium acetate and acetic anhydride. […]

S100B with RAGE = S100B with RAGE (Homo sapiens, UniProt P04271); assay: S100B binding with RAGE ELISA (sRAGE coated plate)
S100B with RAGE, sequence (P04271 whole entry, species assumed): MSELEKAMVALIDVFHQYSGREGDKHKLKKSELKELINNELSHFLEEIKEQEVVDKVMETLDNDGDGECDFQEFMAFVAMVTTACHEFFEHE
Description: After removing un-bound S100B by washing with detergent, bound S100B and RAGE complex was quantified by adding HRP labeled antibody against S100B.

## O=C(O)c1cc(=O)c2c(OCC(O)COc3cccc4oc(C(=O)O)cc(=O)c34)cccc2o1 [cromolyn, disodium 1,3-bis[(2′-carboxylatochromon-5′-yl)oxy]-2-hydroxypropane]
Panc-1 cells
  serum stimulated Panc-1 cell proliferation: did not influence
Panc-1 cells; PDGF 10 ng/mL, cromolyn 100 μM, 48 hours
  PDGF-stimulated Panc-1 growth in presence of cromolyn: nor did it inhibit growth stimulation caused by PDGF
Panc-1 cells; S100P 100 nM + cromolyn 100 μM
  Panc-1 cell proliferation, mean: 0.56 MTS units
Panc-1 cells; S100P 100 nM, cromolyn 100 μM
  Panc-1 cell proliferation, difference S100P versus S100P+cromolyn: 0.37 MTS units
  effects of exogenous S100P treatment on Panc-1 proliferation: completely blocked
Panc-1 cells; no S100P
  Panc-1 cell proliferation, cromolyn treatment alone: no effect
S100P binding with RAGE
  concentration achieving the same level of S100P inhibition: 5 µM
  interaction between S100P with RAGE: blocked
S100P
  S100P retained by cromolyn affinity column: retained S100P
S100B with RAGE
  interaction of S100B with RAGE: inhibit the interaction of S100B with RAGE
